Source: patent publication US5591756A, “LTB4 synthesis inhibitors” (G. D. Searle & Co., priority 1995, dated 1997)

What was measured:
[1] = target: T1, Human synovial fluid phospholipase A2 (HSF-PLA2) (Homo sapiens, UniProt P14555); test: Human synovial fluid phospholipase A2 (HSF-PLA2) assay; assay type: biochemical; settings: [14C]-oleate-labeled E. coli substrate, pH 7.0, 5 min pre-incubation, 37° C., 30 minutes
T1 construct: Human synovial fluid phospholipase A2 was purified approximately 5000 fold; from tissue; host or cells: human synovial fluid (enzyme purified about 5000 fold)
T1 sequence (P14555 21-144): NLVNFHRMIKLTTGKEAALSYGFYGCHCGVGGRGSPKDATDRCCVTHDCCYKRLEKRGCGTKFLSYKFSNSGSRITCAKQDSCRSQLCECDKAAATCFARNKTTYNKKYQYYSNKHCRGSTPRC
Experimental: Human synovial fluid phospholipase A2 was purified approximately 5000 fold following the procedures of Franson et al., Lung 160, 275-284 (1982) and Fawzy et al., Bio Phys. J. 49, 533a (1986). Following purification the enzyme activity was measured by established methodology using [^14 C]-oleate-labeled, autoclaved E. coli as the substrate as also shown in the above noted references. The assay was performed in a final volume of 100 μl containing 50 mM HEPES (pH 7.0), 150 mM NaCl, 5 mM CaCl2, 7 nM [^14 C]-oleate-labeled E. coli phospholipid and with or without the compound from one of the examples herein undergoing an assay. The compound or control vehicle was pre-incubated with the PLA2 for 5 minutes followed by addition of the E. coli substrate to initiate the reaction. The reaction was maintained at 37° C. for 30 minutes and then terminated by the addition of 2 ml tetrahydrofuran (THF). The reaction product, [^14 C]-oleic acid, was extracted using a 1 ml Bond Elut-NH2 Solid phase extraction column. The IC50 value for the compound (mean±S.E.) is given in the following Table and represents the concentration of the compound required to inhibit 50% of the PLA2 activity.

[2] = system: LTB4 Biosynthesis, Human PMNs; test: LTB4 biosynthesis inhibition in human PMNs; assay type: cell-based; settings: read-out: LTB4 Biosynthesis inhibition cells IC50, Human PMNs
[3] = system: LTB4 Biosynthesis, HL-60 cells; test: Assay for LTB4 (and PGE2) production by HL-60 cells; assay type: cell-based; settings: Homo sapiens; differentiated HL-60 cells, 10 min pre-incubation 37° C., stimulated with 5×10^-6 M calcium ionophore A23187, radioimmunoassay; read-out: LTB4 Biosynthesis inhibition cells IC50, HL60 Cells
Experimental: HL-60 cells were induced to differentiate into granulocytes by a 4 day incubation with 0.8% (v/v) N,N-dimethyl formamide as disclosed in Fontana et al., Proc. Natl. Acad. Sci. 78. (6): 3863-3866 (1981); Agins et al., Biochem. Biophys. Res. Comm. 126, 143-149 (1985); and Bonser et al., Biochemistry 20: 5297-5301 (1981). Prior to performing the assay, differentiated HL-60 cells were washed once with Hanks' balanced salt solution containing 0.35 mg/ml sodium bicarbonate and 10 mM HEPES pH 7.35 (HBSS). HL-60 cells (3×10^6 cells/ml) were pre-incubated with the compound tested or a control vehicle at 37° C. for 10 minutes, followed by 5 minute incubation with 5×10^-6 M calcium ionophore A23187 in a final volume of 1.0 ml. After incubation, the cells were pelleted by centrifugation and the LTB4 and PGE2 in the supernatent were quantified by radioimmunoassay. IC50 values (means±S.E.) for compounds herein that were tested are shown in the following Table and represent the concentrations of the compound required to inhibit 50% of LTB4 or PGE2 production by HL-60 cells stimulated with the calcium ionophore A23187.

SMILES | IC50 [1] [nM] | IC50 [2] [nM] | IC50 [3] [nM]
CCCCCCCCCCCCCC(=O)CC(=O)c1cccc(-c2nnn[nH]2)c1 [Example 19, 1-[3-(1H-tetrazol-5-yl)phenyl]-1,3-hexadecadione] | 48000 | 3000 | –
CCCCCCCCCCCCCC(=O)CC(=O)c1cccc(C(=O)O)c1 [Example 5, 3-(1,3-dioxohexadecanyl)benzoic acid] | 1700 | 1200 | 1500
CCCCCCCCCCCCCC(=O)CC(=O)c1ccc(C(=O)O)s1 [Example 15, 5-(1,3-dioxohexadecyl)-2-thiophenecarboxylic acid] | 1900 | 2700 | –
O=C(CCCCCCCCCOc1ccccc1)CC(=O)c1ccc(C(=O)O)cc1 [Example 22, 4-(1,3-dioxo-12-phenoxydodecyl)benzoic acid] | 16000 | 2700 | –
CCCCCCCCCCCCCC(=O)CC(=O)c1ccc(C(=O)O)cc1 [Example 4, 4-(1,3-dioxohexadecanyl)benzoic acid] | 90000 | – | –
CCCCCCCCCCCCCC(=O)CC(=O)c1ccc(C(=O)O)o1 [Example 9, 5-(1,3-dioxohexadecanyl)-2-furancarboxylic acid] | 2700 | 3500 | 4700
